Results taken from patent US6294674A, “Dibenzofuran sulfonamide matrix metalloproteinase inhibitors” (priority 1999, dated 2001).

What was measured:
MMP01 = target: T1, MMP01 (Homo sapiens, UniProt P03956); assay: Thiopeptolide assay, MMP01; format: biochemical; settings: Tables 2, 3, 5, 7; read-out: IC50 MMP1
T1 construct: purchased Washington University School of Medicine, St. Louis, Mo
T1 sequence (P03956 100-469): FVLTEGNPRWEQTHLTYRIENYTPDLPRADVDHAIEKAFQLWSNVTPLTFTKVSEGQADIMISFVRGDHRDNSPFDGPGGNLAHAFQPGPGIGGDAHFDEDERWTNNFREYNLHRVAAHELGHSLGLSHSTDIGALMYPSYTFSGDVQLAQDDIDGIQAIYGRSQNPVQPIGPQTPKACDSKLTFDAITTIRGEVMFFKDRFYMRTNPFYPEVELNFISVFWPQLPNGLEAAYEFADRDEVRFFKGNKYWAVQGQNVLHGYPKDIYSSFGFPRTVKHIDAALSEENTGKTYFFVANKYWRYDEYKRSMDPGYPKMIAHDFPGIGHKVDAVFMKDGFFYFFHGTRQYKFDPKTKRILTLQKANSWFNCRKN
Protocol: (§1) MMP01, MMP07, MMP09, and MMP13 activity was assayed in a method similar to MMP02 and MMP03 (SCD and GCD). MMP01 and MMP09 can be obtained from Washington University School of Medicine, St. Louis, Mo. MMP07 can be obtained in accordance with the known procedure set forth by Ye QZ, Johnson L. L., and Baragi V., "Gene Syntheses and Expression in E. coli for PUMP, a Human Matrix Metalloproteinase" Biochem. and Biophys. […] MMP 13 can be obtained in accordance with the known procedure set forth by Freije J. M. P., et al., "Molecular Cloning and Expression of Collegenase-3, a Novel Human Matrix Metalloproteinase Produced by Breast Carcinomas" J. Bio.
(§2) Hydrolysis of the thiopeptolide substrate Ac-Pro-Leu-Gly-thioester-Leu-Leu-Gly-OEt (Bachem) is used as the primary screen to determine IC50 values for MMP inhibitors. A 100 μL reaction contains 1 mM 5,5'-dithiobis(2-nitrobenzoic acid) (DTNB), 100 μM substrate, 0.1% Brij, enzyme, and inhibitor in the appropriate reaction buffer. Activated full-length enzymes are assayed at 5 nM, Stromelysin Catalytic Domain (SCD) at 10 nM, and Gelatinase A Catalytic Domain (GaCD) at 1 nM. Inhibitors are screened from 100 μM to 1 nM. Full-length enzymes are assayed in 50 mM HEPES, 10 mM CaCl2, pH 7.0; SCD in 50 mM MES, 10 mM CaCl2, pH 6.0; and GaCD in 50 mM MOPS, 10 mM CaCl2, 10 μM ZnCl2, pH 7.0.

[1] = target: gelatinase A catalytic domain (MMP02); assay: Thiopeptolide assay, gelatinase A catalytic domain (GCD, MMP02); format: biochemical; settings: Tables 2, 3, 5, 7; read-out: IC50 MMP-2CD
Protocol: as §2

[2] = target: T2, stromelysin-1 catalytic domain (MMP03) (Homo sapiens, UniProt P08254); assay: Thiopeptolide assay, stromelysin-1 catalytic domain (SCD, MMP03); format: biochemical; settings: Tables 2, 3, 5, 7; read-out: IC50 MMP 3CD
T2 construct: SCD (stromelysin-1 catalytic domain); made in house; host or cells: Escherichia coli
Protocol: as §2

MMP07 = target: T3, MMP07 (Homo sapiens, UniProt P09237); assay: Thiopeptolide assay, MMP07; format: biochemical; settings: Tables 2, 3, 5, 7; read-out: IC50 MMP-7
T3 construct: made in house; host or cells: Escherichia coli
T3 sequence (P09237 95-267): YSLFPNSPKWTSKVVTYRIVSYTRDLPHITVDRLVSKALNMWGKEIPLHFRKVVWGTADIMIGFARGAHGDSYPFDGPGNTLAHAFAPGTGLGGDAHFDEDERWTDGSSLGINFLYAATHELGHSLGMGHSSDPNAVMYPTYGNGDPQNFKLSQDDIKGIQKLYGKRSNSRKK
Protocol: as §1, §2

MMP-13CD = assay: Thiopeptolide assay, MMP-13CD; format: biochemical, human; settings: Tables 2, 3, 5, 7
Protocol: IC50 values were determined using a thiopeptolide substrate, Ac-Pro-Leu-Gly-thioester-Leu-Leu-Gly-OEt (Ye Q.-Z., Johnson L. L., Hupe D. J., and Baragi V., "Purification and Characterization of the Human Stromelysin Catalytic Domain Expressed in Escherichia coli," Biochemistry, 1992;31:11231-11235). MMP01, MMP07, MMP09, and MMP13 activity was assayed in a method similar to MMP02 and MMP03 (SCD and GCD). MMP01 and MMP09 can be obtained from Washington University School of Medicine, St. Louis, Mo. MMP07 can be obtained in accordance with the known procedure set forth by Ye QZ, Johnson L. L., and Baragi V., "Gene Syntheses and Expression in E. coli for PUMP, a Human Matrix Metalloproteinase" Biochem. and Biophys. Res. Comm., 1992; 186:143-149. MMP 13 can be obtained in accordance with the known procedure set forth by Freije J. M. P., et al., "Molecular Cloning and Expression of Collegenase-3, a Novel Human Matrix Metalloproteinase Produced by Breast Carcinomas" J. Bio. Chem., 1994;269:16766-6773.
as §2, with “7.0. The change in absorbance at 405 riM is monitored on a ThermoMax microplate reader at room temperature continuously for 20 minutes.” for “7.0.”

T2 sequence (P08254 100-272 limits assumed): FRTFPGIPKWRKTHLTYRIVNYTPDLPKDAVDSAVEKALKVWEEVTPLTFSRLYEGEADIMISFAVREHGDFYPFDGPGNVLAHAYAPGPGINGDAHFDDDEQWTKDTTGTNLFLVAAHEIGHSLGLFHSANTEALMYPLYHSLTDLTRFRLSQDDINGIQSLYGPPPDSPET

| SMILES | IC50 (MMP01) [µM] | IC50 [1] [µM] | IC50 [2] [µM] | IC50 (MMP07) [µM] | IC50 (MMP-13CD) [µM] |
| --- | --- | --- | --- | --- | --- |
| O=C(CCCc1c[nH]c2ccccc12)NCCCCC(NS(=O)(=O)c1ccc2oc3ccccc3c2c1)C(=O)O (stereo not shown) [Example A31, 2-(Dibenzofuran-2-sulfonylamino)-6-(4-1H-indol-3-yl-butyrylamino)-hexanoic acid] | > 100 | 3.3 | 6.4 | > 100 | 12.8 |
| O=C(O)C(CCCCNC(=O)C1(c2ccccc2)CC1)NS(=O)(=O)c1ccc2oc3ccccc3c2c1 (stereo not shown) [Example A38, 2-(Dibenzofuran-2-sulfonylamino)-6-(1-phenyl-cyclopropanecarbonylamino)-hexanoic acid] | > 100 | 0.6 | 1.4 | > 100 | 4.2 |
| CC(C)(Oc1ccc(Cl)cc1)C(=O)NCCCCC(NS(=O)(=O)c1ccc2oc3ccccc3c2c1)C(=O)O (stereo not shown) [Example A1, 6-[2-(4-Chloro-phenoxy)-2-methyl-propionylamino]-2-(dibenzofuran-2-sulfonylamino)-hexanoic acid] | > 100 | 5.2 | 9.6 | > 100 | 11 |
| O=C(CCCc1ccccc1)NCCCCC(NS(=O)(=O)c1ccc2oc3ccccc3c2c1)C(=O)O (stereo not shown) [Example A26, 2-(Dibenzofuran-2-sulfonylamino)-6-(4-phenyl-butyrylamino)-hexanoic acid] | > 100 | 1.5 | 4.2 | > 100 | 5.4 |
| O=C(CCc1ccc(Cl)cc1)NCCCCC(NS(=O)(=O)c1ccc2oc3ccccc3c2c1)C(=O)O (stereo not shown) [Example A28, 6-[3-(4-Chloro-phenyl)-propionylamino]-2-(dibenzofuran-2-sulfonylamino)-hexanoic acid] | > 100 | 1.8 | 4.5 | > 100 | 8.7 |
| O=C(CCc1ccncc1)NCCCCC(NS(=O)(=O)c1ccc2oc3ccccc3c2c1)C(=O)O (stereo not shown) [Example A22, 2-(Dibenzofuran-2-sulfonylamino)-6-(3-pyridin4-yl-propionylamino)-hexanoic Acid] | > 100 | 3 | 9 | > 100 | 10 |
| COc1ccccc1CCC(=O)NCCCCC(NS(=O)(=O)c1ccc2oc3ccccc3c2c1)C(=O)O (stereo not shown) [Example A25] | > 100 | 1.8 | 5.2 | > 100 | 5.2 |
| Cc1ccc(CCC(=O)NCCCCC(NS(=O)(=O)c2ccc3oc4ccccc4c3c2)C(=O)O)cc1 (stereo not shown) [Example A27, 2-(Dibenzofuran-2-sulfonylamino)-6-(3-p-tolyl-propionylamino)-hexanoic acid] | > 100 | 1.1 | 7.7 | > 100 | 5.8 |

Second part, the compound after the results:

| IC50 (MMP01) [µM] | IC50 [1] [µM] | IC50 [2] [µM] | IC50 (MMP07) [µM] | IC50 (MMP-13CD) [µM] | SMILES |
| --- | --- | --- | --- | --- | --- |
| > 100 | 7 | 19 | > 100 | 39 | O=C(O)C(CCCCNS(=O)(=O)c1ccc2ccccc2c1)NS(=O)(=O)c1ccc2oc3ccccc3c2c1 (stereo not shown) [Example D8, 2-(Dibenzofuran-2-sulfonylamino)-6-(naphthalene-2-sulfonylamino)-hexanoic acid] |
| > 100 | 2.7 | 8.8 | > 100 | 14.2 | COc1ccc(NC(=O)NCCCCC(NS(=O)(=O)c2ccc3oc4ccccc4c3c2)C(=O)O)cc1 (stereo not shown) [Example B1, 2-(Dibenzofuran-2-sulfonylamino)-6-[3-(4-methoxy-phenyl)-ureido]-hexanoic acid] |
| > 100 | 1.4 | 2.5 | 92.1 | 3.3 | O=C(O)C(CCCCNS(=O)(=O)c1ccccc1)NS(=O)(=O)c1ccc2oc3ccccc3c2c1 (stereo not shown) [Example D6, 6-Benzenesulfonylamino-2-(dibenzofuran-2-sulfonylamino)-hexanoic acid] |
| 40.9 | 0.3 | 0.4 | 12.3 | 0.3 | O=C(CCC(NS(=O)(=O)c1ccc2oc3ccccc3c2c1)C(=O)O)NCc1cccs1 (stereo not shown) [Example F7, 2-(Dibenzofuran-2-sulfonylamino)-4-[(thiophen-2-ylmethyl)-carbamoyl]-butyric acid] |
| > 100 | 0.3 | 2.4 | > 100 | 8 | O=C(NCCCCC(NS(=O)(=O)c1ccc2oc3ccccc3c2c1)C(=O)O)Nc1ccccc1 (stereo not shown) [Example B10, 2-(Dibenzofuran-2-sulfonylamino)-6-(3-phenyl-ureido)-hexanoic acid] |
| > 100 | 0.8 | 1.4 | 70.2 | 4 | O=C(NCCCCC(NS(=O)(=O)c1ccc2oc3ccccc3c2c1)C(=O)O)NCc1ccccc1 (stereo not shown) [Example B9, 6-(3-Benzyl-ureido)-2-(dibenzofuran-2-sulfonylamino)-hexanoic acid] |
| > 100 | 2.5 | 4.2 | > 100 | 11.1 | O=C(O)C(CCCCNS(=O)(=O)C=Cc1ccccc1)NS(=O)(=O)c1ccc2oc3ccccc3c2c1 (stereo not shown) [Example D10, 2-(Dibenzofuran-2-sulfonylamino)-6-(2-phenyl-ethenesulfonylamino)-hexanoic acid] |
| > 100 | 1.8 | 4.6 | > 100 | 7.1 | COc1ccc(S(=O)(=O)NCCCCC(NS(=O)(=O)c2ccc3oc4ccccc4c3c2)C(=O)O)cc1 (stereo not shown) [Example D2, 2-(Dibenzofuran-2-sulfonylamino)-6-(4-methoxy-benzenesulfonylamino)-hexanoic acid] |
| > 100 | 22.2 | 89.3 | > 100 | > 100 | O=C(NCCCCC(NS(=O)(=O)c1ccc2oc3ccccc3c2c1)C(=O)O)Nc1ccc(Cl)c(Cl)c1 (stereo not shown) [Example B2, 2-(Dibenzofuran-2-sulfonylamino)-6-[3-(3,4dichloro-phenyl)-ureido]-hexanoicacid] |
